The text below walks through data of patent US9522184B2, “CD89 activation in therapy” (CSL BEHRING AG, priority 2010, dated 2016).

One experiment relates to neutrophils. As to the kind of experiment: Pan-caspase inhibition of IgA-mediated neutrophil cell death. The format is cell-based, human. Particulars: qVD-OPh 20 μM, 24 hours, in the presence and absence of LPS and GM-CSF; FIG. 6. The text has this: (§1) Antibodies: Anti-CD89 (Clone A59) (both unlabeled and phycoerythrin [PE]-conjugated), and PE-conjugated immunoglobulin G1 (IgG1) isotype control were from BD Biosciences (Basel, Switzerland). Goat anti-mouse IgG (GaM) and unlabelled control IgG1 were obtained from Jackson ImmunoResearch Laboratories (distributed by Milan Analytica, La Roche, Switzerland). Anti-Fas agonistic mAb (CH11) was obtained from LabForce AG (Nunningen, Switzerland). Pooled serum IgA was obtained from CSL Behring AG (Wankdorf, Bern), and was prepared as follows: IgA was purified from human plasma and side-fraction of the IVIg/SCIg manufacturing process by affinity chromatography using CaptureSelect Human IgA resin from BAC (Naarden, Netherlands). […] Cell purity was assessed by staining with Diff-Quik (Baxter, Düdingen, Switzerland) and light microscopy analysis. […] Immunofluorescence: CD89 surface expression was analyzed by flow cytometry following incubation of the cells with saturating concentrations of PE-conjugated anti-CD89 and isotype-matched PE-conjugated control mAbs. […] The caspase inhibitor qVD-OPh (quinoline-Val-Asp-difluorophenoxymethylketone) was used at […] Determination of Cell Death and Apoptosis: Cell death was assessed by uptake of 1 μM ethidium bromide and flow cytometric analysis (FACSCalibur, Becton Dickinson). […]

The test system of a further experiment is human neutrophils. As to the kind of experiment: CD89 surface expression on neutrophils by flow cytometry after inflammatory stimulus. It counts as cell-based.
From the text: as §1
In general terms: In flow cytometry, cells or beads pass a laser one at a time.

In the case of `CC(C)[C@H](NC(=O)c1ccc2ccccc2n1)C(=O)N[C@@H](CC(=O)O)C(=O)COc1c(F)cccc1F` [qVD-OPh, quinoline-Val-Asp-difluorophenoxymethylketone], the “effect on plasma IgA-mediated neutrophil cell death” value in the experiment on neutrophils is recorded as “blocked”.

For “GM-CSF: Cytokine (Novartis Pharma) used as inflammatory stimulus”, in the experiment on human neutrophils (8 hours, 100 ng/ml LPS or 10 ng/ml GM-CSF, blood neutrophils of healthy volunteers, FIG. 1A), the “CD89 expression on neutrophils” value is given as “CD89 expression was increased”. For the same compound, the “time to significant upregulation of CD89 expression” value in the experiment on human neutrophils (time course, FIG. 1B) amounted to 4 h.
